The target of test [1] is T1, CRIP1 (Homo sapiens, UniProt P50238).
T1 construct: enterokinase cleavage site and vector linker residues (N); made in house; host or cells: E. coli (pHAT10-CRIP1, IPTG induction)
T1 sequence (P50238 1-77): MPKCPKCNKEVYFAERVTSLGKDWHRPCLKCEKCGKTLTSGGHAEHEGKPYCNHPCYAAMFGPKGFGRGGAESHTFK
The experiment in a line: Phage display panning (Ph.D.-C7C library), frequency of enriched sequences. To be noted: 4 rounds of panning against enterokinase-truncated CRIP1, 29 phage inserts sequenced. It is filed as binding. How it is done:
In order to generate CRIP1 protein that was as similar as possible to endogenous CRIP1, enterokinase cleavage was performed on purified CRIP1. Uncleaved contaminating HIS-tagged CRIP1 as well as HIS-tagged peptides were removed by re-running the digest over the CellThru resin and retaining the flow thru. […] After four rounds of positive selection against enterokinase-truncated CRIP1, 29 phage DNA inserts were sequenced using a 96 gIII primer (5′-^HOCCC TCA TAG TTA GCG TAA CG-3′). Sequencing verified that 18 of the 29 phagotopes were from the cysteine-constrained phage library, Table 1. Many of the peptide sequences contained similar motifs and six sequences occurred in more than one phagotope. The peptides A1 and C5 were identified four times, C1 three times, and A9, B1, and B5 twice. However, even accounting for conserved amino acid substitutions, no clear motif could be identified.
CRIP1 was digested with enterokinase (Roche Diagnostics, Inc.) to remove the His tag and then was used as bait for 4 rounds of panning with the Ph.D.-C7C Phage Display Peptide Library (New England Biolabs). The nucleotide sequence of the gene III insert was determined by sequencing the phage, and the amino acid sequence of the insert was deduced from the nucleotide sequence, shown in Table 1.

Test [2] deals with T1, CRIP1. The experiment in a line: ELISA of individual phage clones binding to immobilized CRIP1. To be noted: purified chimeric CRIP1 not reacted with enterokinase. The text has this: To select clones for further analysis, we used ELISA to determine the relative binding affinities of selected individual phage clones to purified CRIP1 (see Methods and Figure S3). For these studies the purified chimeric CRIP1 was not reacted with enterokinase.
Supplementary file pcbi.1000138.s003.tif: Figure S3 Relative estimates of peptide affinity for CRIP1. Phage binding against immobilized CRIP-1. (0.38 MB TIF) Click here for additional data file.
On the technique in general: In an ELISA, binding on a coated surface is turned into a signal by an enzyme label.

The target of test [3] is T2, Cysteine-rich intestinal protein 1 (CRIP1), purified protein coated on plates for the peptide binding assays (human, UniProt P50238 1-77).
T2 construct: Cysteine-rich intestinal protein 1 (CRIP1), human; coding region of the cDNA, 77 amino acids; also called CRIP1 protein; source: bacteria (pHAT10-CRIP1, IPTG induced), purified (TALON CellThru resin)
T2 sequence (looked up): T1 sequence (P50238 1-77)
Nature of the test: saturation binding of FITC-labelled peptide to protein-coated plates (fluorescence read-out); data not shown; 'similar assays' to the saturation binding of FITC-A1M on coated CRIP1; apparent Kd. To be noted: both partners purified.

Test [4] concerns the target T2, Cysteine-rich intestinal protein 1 …. The experiment in a line: competitive binding on protein-coated plates (fluorescence read-out); CRIP1 coated on 96-well plates (100 µg/ml in PBS, overnight 4°C); 10 µM FITC-A1M held constant, unlabeled A1 or A1M 0 to 300 µM, 1 h at 37°C; one binding site model. The settings on record: both partners purified.
For test [5] the target is unchanged. Nature of the test: saturation binding of FITC-labelled peptide to protein-coated plates (fluorescence read-out); CRIP1 coated on 96-well plates (100 µg/ml in PBS, overnight 4°C), blocked with 0.5% BSA in TBS; FITC peptide 50 nM to 100 µM, 1 h at 37°C; non-specific binding with 1 mM unlabeled peptide; apparent Kd by non-linear regression. To be noted: both partners purified.

Where a SMILES comes first, the peptide text is derived from it. Bridges are numbered along the chain shown (N, C = ends). Where no end group is shown, it is not given here. The star is where a group is joined. 5FAM = O=C1OC2(c3ccc(O)cc3Oc3cc(O)ccc32)c2ccc(C(=O)*)cc21

On to “PLFKGMS (disulfide (positions not given here)) [B7, C7C phage display peptide PLFKGMS]”, for which the “Frequency (number of phage clones with the sequence)” value (shortened to “Frequency”) on CRIP1 [1] was determined as 1. On the same count and under the same terms, to “YDPIWRT (disulfide (positions not given here)) [B2, C7C phage display peptide YDPIWRT]” belongs 1. With “DHRQGSS (disulfide (positions not given here)) [A5, C7C phage display peptide DHRQGSS]”, the “Frequency” value on CRIP1 [1] is reported as 1.

`CC(C)C[C@@H]1NC(=O)[C@@H](N)CSSC[C@@H](C(=O)NCC(=O)NCC(=O)NCC(=O)N[C@@H](CO)C(=O)N[C@@H](CCCCN)C(N)=O)NC(=O)[C@H](CO)NC(=O)[C@H](CCCNC(=N)N)NC(=O)[C@H](Cc2c[nH]cn2)NC(=O)[C@H](CC(N)=O)NC(=O)[C@H](CC(=O)O)NC(=O)[C@H](CCCCN)NC1=O` [A1] (H-CLKDNHRSCGGGSK-NH2; disulfide 1-9; N-terminus assumed): the “relative binding affinity of phage clone” value at CRIP1 [2] is on record as “higher relative affinity”. As for “SPHIIAS (disulfide (positions not given here)) [A8, C7C phage display peptide SPHIIAS]”, the “Frequency” value on CRIP1 [1] came to 1. Take `CC[C@H](C)[C@@H]1NC(=O)[C@@H]2CCCN2C(=O)[C@H](CC(=O)O)NC(=O)[C@H](Cc2ccc(O)cc2)NC(=O)[C@@H](N)CSSC[C@@H](C(=O)NCC(=O)NCC(=O)NCC(=O)N[C@@H](CO)C(=O)N[C@@H](CCCCNC(=O)c2ccc3c(c2)C(=O)OC32c3ccc(O)cc3Oc3cc(O)ccc32)C(N)=O)NC(=O)[C@H]([C@@H](C)O)NC(=O)[C@H](CCCNC(=N)N)NC(=O)[C@H](Cc2c[nH]c3ccccc23)NC1=O` [B5] (H-CYDPIWRTCGGGSK(5FAM)-NH2; disulfide 1-9; N-terminus assumed): the “relative binding affinity of phage clone” value on CRIP1 [2] is recorded as “higher relative affinity”. Turning to “SLNTRSQ (disulfide (positions not given here)) [C9, C7C phage display peptide SLNTRSQ]”, the “Frequency” value on CRIP1 [1] was 1. The same measure, in the same setting: in the case of “RDSSAHQ (disulfide (positions not given here)) [B10, C7C phage display peptide RDSSAHQ]” it was 1. On the same count and under the same terms, in the case of “APYNTLA (disulfide (positions not given here)) [A6, C7C phage display peptide APYNTLA]” it was 1. Same read-out and setting: to “HANFLHM (disulfide) [C2, C7C phage display peptide HANFLHM]” belongs 1. “SVPINDS (disulfide) [A3, C7C phage display peptide SVPINDS]”: the “Frequency” value at CRIP1 [1] stood at 1. Still for that read-out and setting: in the case of “RTTGAQT (disulfide (positions not given here)) [B4, C7C phage display peptide RTTGAQT]” it was 1. Consider “TPRQSPI (disulfide) [C5, C7C phage display peptide TPRQSPI]”, for which the “relative binding affinity of phage clone” value on CRIP1 [2] was “lower binding affinity”.

As for “LPAYSTY (disulfide (positions not given here)) [B9, C7C phage display peptide LPAYSTY]”, the “Frequency” value on CRIP1 [1] came out at 1. Same read-out and setting: in the case of “FSTNMKT (disulfide (positions not given here)) [B3, C7C phage display peptide FSTNMKT]” it was 1.

B1: FITC-cyclic-A1 peptide (peptide)
peptide: H-CLKDNHRSCGGGSK-NH2
modifications: disulfide 1-9 (inferred); not fully specified (residue 14); printed as NH_2_-C-L-K-D-N-H-R-S-C-G-G-G-S-K-(FITC)-CONH_2_
notes: insert of phage clone A1 (C7C library) followed by the phage spacer Gly-Gly-Gly-Ser and a C-terminal Lys for labelling; also called FITC-A1; parent A1 peptide; source: synthetic peptide (Fmoc chemistry, HPLC purified, cyclised by oxidation in DMSO)
Take B1: the Kd in test [3] was 34.4 µM.

B2: unlabeled A1M peptide (peptide)
peptide: CLDGGGKGCGGGSK
modifications: disulfide 1-9 (inferred)
notes: source: synthetic peptide
One may read the IC50 as the concentration that inhibits the measured activity by half. Broadly, the Ki is the equilibrium dissociation constant of an inhibitor or competing ligand from its target. On to B2, for which, in test [4], the IC50 turned out to be 0.32 µM and the inhibition constant Ki was 0.067 µM.

B3: unlabeled A1 peptide (peptide)
peptide: CLKDNHRSCGGGSK
modifications: disulfide 1-9 (inferred)
notes: also called original A1 peptide; source: synthetic peptide
For the molecule B3, in test [4], the 50% inhibitory concentration (IC50) was determined as 8.8 µM.

B4: FITC-cyclic-B5 peptide (peptide)
peptide: CYDPIWRTCGGGSK-NH2
modifications: disulfide 1-9 (inferred); not fully specified (residue 14); printed as C-Y-D-P-I-W-R-T-C-G-G-G-S-K-(FITC)-CONH_2_
notes: insert of phage clone B5 (C7C library) followed by the phage spacer Gly-Gly-Gly-Ser and a C-terminal Lys for labelling; also called FITC-B5; source: synthetic peptide (Fmoc chemistry, HPLC purified, cyclised by oxidation in DMSO)
Take B4: in test [3], the Kd came out at 62.5 µM.

B5: FITC-cyclic-A1M peptide (peptide)
peptide: H-CLDGGGKGCGGGSK-NH2
modifications: disulfide 1-9 (inferred); not fully specified (residue 14); printed as NH_2_-C-L-D-G-G-G-K-G-C-G-G-G-S-K-(FITC)-CONH_2_
notes: also called FITC-A1M; modified A1; source: synthetic peptide (Fmoc chemistry, HPLC purified, cyclised by oxidation in DMSO)
In the case of B5, the Kd in test [5] was 2.6 µM.
